Source: patent US7425558B2, “Serotonergic agents for treating sexual dysfunction” (Wyeth, priority 2000, dated 2008)
Blank lines part the entries; values can stand above or below the compound they belong to.

Key:
[1] = target: T1, 5-HT1A (Rattus norvegicus, UniProt P19327); experiment: Fixed Responding Model, in vivo 5-HT1A antagonism of 8-OH-DPAT-induced decrease in response rate; parameters: species or system rats
T1 construct: from tissue; host or cells: whole animal (rat), behavioural model
T1 sequence (P19327 1-422): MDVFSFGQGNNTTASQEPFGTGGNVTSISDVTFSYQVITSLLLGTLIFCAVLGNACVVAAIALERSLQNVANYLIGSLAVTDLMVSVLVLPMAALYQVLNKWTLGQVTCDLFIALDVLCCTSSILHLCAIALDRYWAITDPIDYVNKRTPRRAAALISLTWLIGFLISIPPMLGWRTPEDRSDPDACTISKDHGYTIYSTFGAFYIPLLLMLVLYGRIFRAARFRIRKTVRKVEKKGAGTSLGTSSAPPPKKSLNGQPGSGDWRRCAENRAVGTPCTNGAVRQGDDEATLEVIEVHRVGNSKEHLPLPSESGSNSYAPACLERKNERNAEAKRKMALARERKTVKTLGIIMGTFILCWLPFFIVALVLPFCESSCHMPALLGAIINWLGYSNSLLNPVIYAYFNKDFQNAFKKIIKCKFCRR
Method: The ability of the compounds to function in vivo as 5-HT1A antagonists was assessed in rats using a Fixed Responding Model (D. Blackman, in “Operant Conditioning: An Experimental Analysis of Behavior”, J. Butcher, ed., Methuen and Co., Ltd., London). In this model rats are trained to respond (lever pressing) under a fixed-ratio 30 schedule of food presentation in order to receive a food pellet reinforcer. […] The 5-HT1A antagonist activity of a test compound is determined by measuring its ability to antagonize this agonist-induced decrease in response rate.

[2] = target: T2, cloned human 5-HT1A receptors (Homo sapiens, UniProt P08908); experiment: Binding to cloned human 5-HT1A receptors in CHO cells, [3H]8-OH-DPAT radioligand; conditions: read-out: 5-HT1A Affinity Ki
T2 construct: expressed in transfected cells; host or cells: CHO cells
T2 sequence (P08908 1-422): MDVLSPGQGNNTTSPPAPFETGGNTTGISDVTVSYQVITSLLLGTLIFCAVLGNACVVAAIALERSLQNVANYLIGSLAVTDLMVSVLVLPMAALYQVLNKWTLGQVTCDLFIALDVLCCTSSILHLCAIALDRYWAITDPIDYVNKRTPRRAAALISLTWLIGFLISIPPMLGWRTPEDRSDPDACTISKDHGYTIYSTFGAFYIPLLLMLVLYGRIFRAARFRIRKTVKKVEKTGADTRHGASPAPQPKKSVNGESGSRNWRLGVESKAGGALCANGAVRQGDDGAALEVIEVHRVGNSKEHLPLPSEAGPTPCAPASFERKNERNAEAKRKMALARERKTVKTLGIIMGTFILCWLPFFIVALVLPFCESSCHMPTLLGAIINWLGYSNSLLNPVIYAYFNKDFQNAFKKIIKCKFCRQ

[3] = target: T3, human 5-HT1A receptor (Homo sapiens, UniProt P08908); experiment: In vitro functional activity: antagonism of 8-OH-DPAT inhibition of forskolin-stimulated cAMP production; type: cell-based; conditions: antagonism of 10 nM 8-OH-DPAT inhibition of forskolin-stimulated cAMP production; read-out: 5-HT1A Antagonist Activity cAMP Assay IC50
T3 construct: expressed in transfected cells
T3 sequence (P08908 1-422): T2 sequence (P08908 1-422)

[4] = target: T1, 5-HT1A; experiment: Duration of action in the Fixed Responding Model; type: in vivo, rats
Excerpt: All drug and vehicle administrations were made by the subcutaneous route.

[5] = tested on: sexually experienced male rats (Sprague-Dawley rats); experiment: Non-contact penile erections in sexually experienced male rats (animal model of drug-induced sexual dysfunction); type: in vivo; conditions: for Reversal of fluoxetine-induced sexual dysfunction: administered acutely after 7 or 14 days of fluoxetine treatment; for Prevention of deficit in non-contact penile erections produced by chronic fluoxetine: co-administered with fluoxetine 10 mg/kg for 7 or 14 days, Example compound 3 1 mg/kg, Example compound 2 0.3 mg/kg
Method: The animal model is based on the finding that sexually experienced rats that are administered an SSRI, a drug used to treat certain conditions such as depression, display a reduction in the number of non-contact penile erections. SSRI treatment is associated with sexual dysfunction in human subjects. In general, the animal model exposes sexually experienced male rats (Sprague-Dawley rats) to female rats in estrous in a novel testing arena that is not the regular housing environment.
The ability of various drugs associated with sexual dysfunction in humans to cause sexual dysfunction in the animal model was tested using three different drugs, bupropion (20 mg/kg), desipramine (10 mg/kg), and fluoxetine (10 mg/kg), or vehicle alone (0.9% saline), each administered intraperitoneally (i.p.), once per day for 14 days. After the treatment period, animals were tested for the frequency of non-contact penile erections over a 30 minute trial period.
To examine the time course of the effects of a drug that causes sexual dysfunction, rats that were handled and tested as described above were treated acutely: rats were treated with vehicle for 6 days, and on the test day (day 7) instead of vehicle, the animals received a single dose of fluoxetine in vehicle (i.p.). For a subchronic (7 day) study, fluoxetine was administered each day for 7 days and the animals were evaluated on test day 7. For the chronic 14 day study, fluoxetine was administered each day for 14 days and the animals were tested on day 14. Each fluoxetine dose was 10 mg/kg in vehicle and was delivered i.p. on each of the test days as described above.
To test the ability of a 5-HT1A antagonist to ameliorate the effects of sexual dysfunction, sexually experienced rats were administered an SSRI using an acute or subchronic (7 day) schedule and then tested for sexual function as described above.
In these experiments, rats were treated with vehicle only on days 1-13 then administered a single acute dose of 0.1 mg/kg of the compound (group 1), vehicle only for days 1-13 and a single dose of 1.0 mg/kg compound in vehicle on day 14 (group 2), only vehicle on days 1-14 (group 3), fluoxetine on days 1-14 (group 4), fluoxetine on days 1-13 and a single administration of 0.1 mg/kg of the compound and fluoxetine on day 14 (group 5); and fluoxetine on days 1-13 and a single dose of 1.0 mg/kg compound with fluoxetine on day 14 (group 6). For each group, behavior testing was performed for 30 minutes immediately following drug administration on day 14 only.
Experiments were conducted to assess the ability of a 5-HT1A antagonist to prevent the effects of SSRI treatment. Rats, as described supra, were co-administered a 5-HT1A antagonist and an SSRI. […] The administered SSRI was fluoxetine (10 mg/kg). The 5-HT1A antagonist and SSRI were co-administered for 7 or 14 days with the SSRI.

Reversal of decrease in response rate induced by 8-OH-DPAT ([1]; 1 mg/kg dose, 0.3 mg/kg 8-OH-DPAT): completely reverses
Response Rate ([1]; 8-OH-DPAT (0.3 mg/kg sc) + Example compound 1 (1 mg/kg sc), vehicle control 2.4 ± 0.5): 2.5 ± 0.2 responses/second
Ki [2]: 1.6 nM
IC50 [3]: 25 nM
Antagonism of agonist-induced decrease in responding ([4]; 30 minutes after administration): completely antagonize
Duration of action ([4]; Fixed Responding Model, sc): > 4 h
Dose Which Shifts Agonist Dose-response Curve by 10-fold ([4]; administered 30 minutes prior to 8-OH-DPAT): 1.0 mg/kg, sc
5-HT1A antagonist effect on response rate ([4]; agonist given 2 hours following test drug administration): complete 5-HT1A antagonist effects
5-HT1A antagonist effect on response rate ([4]; four hours post-administration): complete antagonism
% Response Rate, 0.5 hour pretreatment ([4]; test compound sc (Table 3 dose) 0.5 hour before 0.3 mg/kg 8-OH-DPAT, 100% = vehicle control response rate): 100 ± 7%
% Response Rate, 2 hour pretreatment ([4]; test compound sc (Table 3 dose) 2 hours before 0.3 mg/kg 8-OH-DPAT, 100% = vehicle control response rate): 118 ± 13%
% Response Rate, 4 hour pretreatment ([4]; test compound sc (Table 3 dose) 4 hours before 0.3 mg/kg 8-OH-DPAT, 100% = vehicle control response rate): 99 ± 16%
Compound: C[C@H](CN(C(=O)c1ccc(C#N)cc1)c1ccccn1)N1CCN(c2cccc3c2OCCO3)CC1 [Example 1, (R)-4-Cyano-N-{2-[4-(2,3-Dihydro-Benzo[1,4]dioxin-5-yl)-Piperazin-1-yl]-Propyl}-N-Pyridin-2-yl-Benzamide]

Compound: COc1ccccc1N1CCN(CCN(C(=O)C2CCCCC2)c2ccccn2)CC1 [Example compound 2, N-[2-[4-(2-methoxyphenyl)-1-piperazinyl]ethyl]-N-(2-pyridinyl)cyclohexanecarboxamide]
Reversal of fluoxetine-induced sexual dysfunction [5]: complete and significant reversal
Prevention of deficit in non-contact penile erections produced by chronic fluoxetine [5]: prevented the deficit in non-contact penile erections
Effect on drug-induced sexual dysfunction ([5]; single acute dose after a period of drug-induced sexual dysfunction): ameliorated sexual dysfunction

Compound: CNCCC(Oc1ccc(C(F)(F)F)cc1)c1ccccc1 (stereo not drawn) [fluoxetine, N-methyl-3-(p-trifluoromethylphenoxy)-3-phenylpropylamine, reference compound]
Sexual dysfunction (number of non-contact penile erections in 30 minutes) ([5]; chronic (14 days) fluoxetine 10 mg/kg i.p.): significant increase in sexual dysfunction
Sexual dysfunction (number of non-contact penile erections in 30 minutes) ([5]; sub-chronic (7 days) fluoxetine 10 mg/kg i.p.): significant increase in sexual dysfunction

Compound: (R)-N-(2-methyl-(4-indolyl-1-piperazinyl)ethyl)-N-(2-pyridinyl)cyclohexanecarboxamide [Example compound 3]
Reversal of fluoxetine-induced sexual dysfunction [5]: complete and significant reversal
Prevention of deficit in non-contact penile erections produced by chronic fluoxetine [5]: prevented the deficit in non-contact penile erections
Reversal of deficits in number of non-contact penile erections ([5]; single dose 0.1 mg/kg on day 14 of fluoxetine 10 mg/kg/day i.p.): full reversal
Reversal of deficits in number of non-contact penile erections ([5]; single dose 1.0 mg/kg on day 14 of fluoxetine 10 mg/kg/day i.p.): full reversal
